In patent US8426436B2, “Heterocyclic cyclopamine analogs and methods of use thereof” (Infinity Discovery, Inc., priority 2007, dated 2013):

Key:
Hedgehog pathway = assay: C3H10T1/2 osteoblast differentiation assay (alkaline phosphatase readout, Shh-induced); type: cell-based; details: Mus musculus, C3H 10T1/2; C3H10T1/2 cells, sonic Hedgehog 250 ng/ml, AP activity normalized to total protein; approximate EC50 for inhibition
Excerpt: Hedgehog pathway specific cancer cell killing effects may be ascertained using the following assay. C3H10T1/2 cells differentiate into osteoblasts when contacted with the sonic hedgehog peptide (Shh-N). Upon differentiation, these osteoblasts produce high levels of alkaline phosphatase (AP) which can be measured in an enzymatic assay (Nakamura, et al., BBRC (1997) 237:465). Compounds that block the differentiation of C3H10T1/2 into osteoblasts (a Shh dependent event) can therefore be identified by a reduction in AP production (van der Horst, et al., Bone (2003) 33:899). The assay details are described below. The results approximate (EC50 for inhibition) of the differentiation assay is shown below in Table 1.
Mouse embryonic mesoderm fibroblasts C3H10T1/2 cells (obtained from ATCC) were cultured in Basal MEM Media (Gibco/Invitrogen) supplemented with 10% heat inactivated FBS (Hyclone), 50 units/ml penicillin and 50 ug/ml streptomycin (Gibco/Invitrogen) at 37° C. with 5% CO2 in air atmosphere.
Alkaline Phosphatase Assay C3H10T1/2 cells were plated in 96 wells with a density of 8×10^3 cells/well. Cells were grown to confluence (72 hrs). After sonic Hedgehog (250 ng/ml), and/or compound treatment, the cells were lysed in 110 μL of lysis buffer (50 mM Tris pH 7.4, 0.1% TritonX100), plates were sonicated and lysates spun through 0.2 μm PVDF plates (Corning). 40 μL of lysates was assayed for AP activity in alkaline buffer solution (Sigma) containing 1 mg/ml p-Nitrophenyl Phosphate. After incubating for 30 min at 37° C., the plates were read on an Envision plate reader at 405 nm. Total protein was quantified with a BCA protein assay kit from Pierce according to manufacturer's instructions. AP activity was normalized against total protein.

BxPC-3 cells = assay: BxPC-3 human pancreatic subcutaneous tumor model, tumor volume; type: in vivo, mice; details: BxPC-3 subcutaneous, orally 40 mg/kg/day, 25 daily doses, p=0.0437
Protocol: (§1) The activity of Compound 10 was further tested in a human pancreatic model: BxPC-3 cells were implanted subcutaneously into the flanks of the right legs of mice. On day 42 post-tumor implant, the mice were randomized into two groups to receive either Vehicle (30% HPBCD) or Compound 10. Compound 10 was administered orally at 40 mg/kg/day. […] At the end of the study, the tumors were harvested 4 hours post the last dose to evaluate an on target response by q-RT-PCR analysis of the HH pathway genes.

human Gli-1 = assay: q-RT-PCR of HH pathway genes in harvested BxPC-3 tumors, human Gli-1; type: in vivo; details: BxPC-3 tumors harvested 4 hours post last dose, 40 mg/kg/day oral
Protocol: as §1

murine Gli-1 mRNA = assay: q-RT-PCR of HH pathway genes in harvested BxPC-3 tumors, murine Gli-1; type: in vivo; details: BxPC-3 tumors harvested 4 hours post last dose, 40 mg/kg/day oral
Protocol: as §1

[1] = system: PANC-1 pancreatic cancer cells; assay: PANC-1 orthotopic pancreatic cancer model, tumor weight; type: in vivo; details: 40 mg/kg/day, 5 weeks (35 doses), p=0.00014
Protocol: (§2) The activity of Compound 10 was also tested in another model of pancreatic cancer in which the PANC-1 pancreatic cancer cells were implanted into the orthotopic site, that is, directly into the pancreas. At the end of 5 weeks of dosing, 40 mg/kg/day (a total of 35 doses), tumor growth was monitored by weighing the tumors as they were removed from the animals. There was a statistically significant (p=0.00014) difference between the Compound 10 and vehicle treated animals which was seen as a 47% decrease in tumor weight in the Compound 10 treated animals. In addition, tumor tissue was harvested and RNA was isolated 24 hours after the final dose of Compound 10.

human Gli-1 mRNA = assay: Gli-1 mRNA analysis of PANC-1 tumor tissue, human Gli-1; type: in vivo; details: RNA isolated 24 hours after final dose
Protocol: as §2

murine Gli-1 = assay: Gli-1 mRNA analysis of PANC-1 tumor tissue, murine Gli-1; type: in vivo; details: RNA isolated 24 hours after final dose
Protocol: as §2

Gli-1 mRNA = assay: Ptch1/Hic1 medulloblastoma subcutaneous allograft model, Gli-1 mRNA expression; type: in vivo, mouse; details: single oral (PO) dose, subcutaneously implanted tumors, 8 hours post dose
Protocol: (§3) The activity of Compound 10 was evaluated in a transgenic mouse model of medulloblastoma. Mice that are heterozygous for loss of function mutations in the tumor suppressors Patched1 (Ptch1) and Hypermethylated in Cancer (Hic1) develop spontaneous medulloblastoma. […] When passaged as subcutaneous allografts, these tumors grow aggressively and are Hedgehog pathway-dependent. This model was employed to evaluate the efficacy of orally administered Compound, and to correlate activity with drug exposure in plasma and tumors.

medulloblastoma = assay: Ptch1/Hic1 medulloblastoma subcutaneous allograft model, tumor growth; type: in vivo, mouse
Protocol: as §3
The approximate effective daily oral dose for 50% inhibition of tumor growth (ED50) is […] 8 mg/kg.

Compound: CC1=C2C[C@H]3[C@@H](CC[C@@H]4Cc5[nH]ncc5C[C@@]43C)[C@@H]2CC[C@@]2(C1)O[C@@H]1C[C@H](C)CN(S(C)(=O)=O)[C@H]1[C@H]2C [Compound 40]
- EC50 (Hedgehog pathway): 20 to 100 nM

Compound: CC1=C2C[C@H]3[C@@H](CC[C@@H]4Cc5nocc5C[C@@]43C)[C@@H]2CC[C@@]2(C1)O[C@@H]1C[C@H](C)CN[C@H]1[C@H]2C [Compound 1]
- EC50 (Hedgehog pathway): 20 to 100 nM

Compound: CC1=C2C[C@H]3[C@@H](CC[C@@H]4Cc5n[nH]cc5C[C@@]43C)[C@@H]2CC[C@@]2(C1)O[C@@H]1C[C@H](C)CN(O)[C@H]1[C@H]2C [Compound 31]
- EC50 (Hedgehog pathway): 20 to 100 nM

Compound: CC1=C2C[C@H]3[C@@H](CC[C@H]4Cc5[nH]ncc5C[C@@]43C)[C@@H]2CC[C@@]2(C1)O[C@@H]1C[C@H](C)CN[C@H]1[C@H]2C [Compound 45]
- EC50 (Hedgehog pathway): > 100 nM

Compound: C[C@@H]1CN[C@H]2[C@@H](C)[C@@]3(CC[C@@H]4C(C[C@H]5[C@H]4CC[C@@H]4Cc6[nH]ncc6C[C@@]45C)C3)O[C@@H]2C1 (stereo partly shown) [Compound 17]
- EC50 (Hedgehog pathway): 20 to 100 nM

Compound: CC1=C2C[C@H]3[C@@H](CC[C@@H]4Cc5[nH][nH]c(=O)c5C[C@@]43C)[C@@H]2CC[C@@]2(C1)O[C@@H]1C[C@H](C)CN[C@H]1[C@H]2C [Compound 32]
- EC50 (Hedgehog pathway): > 100 nM

Compound: CC1=C2C[C@H]3[C@@H](CC[C@@H]4Cc5nn(S(C)(=O)=O)cc5C[C@@]43C)[C@@H]2CC[C@@]2(C1)O[C@@H]1C[C@H](C)CN[C@H]1[C@H]2C [Compound 12]
- EC50 (Hedgehog pathway): > 100 nM

Compound: CC1=C2C[C@H]3[C@@H](CC[C@@H]4Cc5n[nH]cc5C[C@@]43C)[C@@H]2CC[C@@]2(C1)O[C@@H]1C[C@H](C)CN(C)[C@H]1[C@H]2C [Compound 13]
- EC50 (Hedgehog pathway): 20 to 100 nM

Compound: CC1=C2C[C@H]3[C@@H](CC[C@@H]4Cc5n[nH]cc5C[C@@]43C)[C@@H]2CC[C@@]2(C1)O[C@@H]1C[C@H](C)CN[C@H]1[C@H]2C [Compound 10]
- EC50 (Hedgehog pathway): < 20 nM
- reduction of tumor volume growth compared to vehicle control (BxPC-3 cells): 37%
- human Gli-1 modulation (q-RT-PCR) (human Gli-1): no modulation
- murine Gli-1 mRNA levels vs vehicle (murine Gli-1 mRNA): robust down-regulation
- decrease in tumor weight vs vehicle [1]: 47%
- human Gli-1 mRNA modulation (human Gli-1 mRNA): no modulation
- murine Gli-1 modulation (murine Gli-1): did reveal modulation
- HH pathway regulation measured by Gli-1 mRNA expression (Gli-1 mRNA): dose-dependent down-regulation
- ED50 (medulloblastoma; Mus musculus, daily oral dosing, read-out: approximate effective daily oral dose for 50% inhibition of tumor growth (ED50)): ~8 mg/kg
- tumor growth effect (medulloblastoma; daily (QD) PO administration): dose dependent inhibition of tumor growth, with frank tumor regression seen at higher doses
- long term survival following cessation of treatment (medulloblastoma; treated QD for 21 days): > 19 days
- tumor re-growth after cessation of treatment (medulloblastoma; treated QD for 21 days): little to no tumor re-growth

Compound: CC1=C2C[C@H]3[C@@H](CC[C@@H]4Cc5n[nH]c(C(F)(F)F)c5C[C@@]43C)[C@@H]2CC[C@@]2(C1)O[C@@H]1C[C@H](C)CN[C@H]1[C@H]2C [Compound 15]
- EC50 (Hedgehog pathway): > 100 nM

Compound: CC1=C2C[C@H]3[C@@H](CC[C@@H]4Cc5nn(S(C)(=O)=O)cc5C[C@@]43C)[C@@H]2CC[C@@]2(C1)O[C@@H]1C[C@H](C)CN(S(C)(=O)=O)[C@H]1[C@H]2C [Compound 41]
- EC50 (Hedgehog pathway): > 100 nM

Compound: CC1=C2C[C@H]3[C@@H](CC[C@@H]4Cc5[nH]ncc5C[C@@]43C)[C@@H]2CC[C@]12O[C@@H]1C[C@H](C)CN[C@H]1[C@H]2C [Compound 19]
- EC50 (Hedgehog pathway): > 100 nM

Compound: CC(=O)N1C[C@@H](C)C[C@H]2O[C@]3(CC[C@@H]4C(=C(C)C3)C[C@H]3[C@H]4CC[C@@H]4Cc5n[nH]cc5C[C@@]43C)[C@H](C)[C@@H]21 [Compound 14]
- EC50 (Hedgehog pathway): 20 to 100 nM

Compound: CC1=C2C[C@H]3[C@@H](CC[C@@H]4Cc5nc(C)sc5C[C@@]43C)[C@@H]2CC[C@@]2(C1)O[C@@H]1C[C@H](C)CN[C@H]1[C@H]2C [Compound 42]
- EC50 (Hedgehog pathway): > 100 nM

Compound: CC1=C2C[C@H]3[C@@H](CC[C@@H]4Cc5nn(C)cc5C[C@@]43C)[C@@H]2CC[C@@]2(C1)O[C@@H]1C[C@H](C)CN[C@H]1[C@H]2C [Compound 11]
- EC50 (Hedgehog pathway): 20 to 100 nM

Compound: CC1=C2C[C@H]3[C@@H](CC[C@@H]4Cc5[nH]ncc5C[C@@]43C)[C@@H]2CC[C@@]2(C1)O[C@@H]1C[C@H](C)CN(S(N)(=O)=O)[C@H]1[C@H]2C [Compound 44]
- EC50 (Hedgehog pathway): 20 to 100 nM

Compound: CC1=C2C[C@H]3[C@@H](CC[C@@H]4Cc5nn(S(=O)(=O)c6ccc(C)cc6)cc5C[C@@]43C)[C@@H]2CC[C@@]2(C1)O[C@@H]1C[C@H](C)CN[C@H]1[C@H]2C [Compound 43]
- EC50 (Hedgehog pathway): > 100 nM
